What was measured:
RBCs from wild-type mice = test: Osmotic water permeability, RBCs from wild-type mice; format: cell-based, mouse; details: inhibitors 25 μM, phloretin 0.7 mM, 10° C.
Method: FIGS. 8A-B illustrate UT-B-facilitated water transport by ‘chemical UT-B knock-out’. Osmotic water permeability was measured from the time course of RBC volume in response to a 250-mM inwardly directed sucrose gradient. FIG. 8A presents representative traces of mouse RBC water permeability performed at 10° C., with genotypes and conditions indicated. Inhibitors ureainh-201 and ureainh-302 were used at 25 μM. FIG. 8B presents osmotic water permeability coefficients (Pf) from experiments as illustrated in FIG. 8A (±SE, 3-7 curves per group of RBCs pooled from 4 mice per genotype). *, P<0.01 compared with no inhibitor; #, P<0.01 compared with wild-type (no inhibitor).
RBC urea and water permeabilities were assayed by stopped-flow light scattering using a Hi-Tech Sf-51 instrument (Wiltshire, UK). For measurement of urea permeability, dilutions of whole blood (human or mouse; see Example 1) in PBS (hematocrit: approximately 0.5%) were incubated with test compounds for 5 min and then subjected to a 250-mM inwardly directed gradient of urea. After an initial osmotic shrinking phase, the kinetics of increasing cell volume caused by urea influx were measured as the time-course of 90° scattered light intensity at 530 nm, with increasing cell volume resulting in reduced scattered light intensity. As a positive control, 0.7 mM phloretin was added to the RBC suspension prior to stopped-flow experiments. Measurements of water permeability were carried out similarly, with sucrose (cell-impermeant) used instead of urea to establish a 250-mM osmotic gradient. As a positive control, HgCl2 (0.3 mM) was added to the RBC suspension prior to stopped-flow measurements. Osmotic water permeability coefficients (Pf) were computed from light scattering data as described (van Hoek et al., J Biol Chem. 267:18267-69 (1992)).
This example describes chemical knock-out of UT-B by UT-B inhibitors in RBCs and the effect on UT-B-facilitated Water transport. […] Osmotic water permeability was measured by stopped-flow light scattering in RBCs from wild-type and AQP1-null mice as shown in FIG. 8A. […] AQP1-null RBCs had greater than 5-fold reduced Pf compared to wild-type RBCs.

mouse UT-B = target: T1, mouse UT-B (Mus musculus, UniProt Q8VHL0); test: Stopped-flow light scattering, N-methylurea transport in mouse RBCs; format: cell-based
T1 construct: the indicator cells are red blood cells that endogenously express the UT-B urea transporter; endogenous in cells; host or cells: red blood cells of wild-type CD1 mice
T1 sequence (Q8VHL0 1-384): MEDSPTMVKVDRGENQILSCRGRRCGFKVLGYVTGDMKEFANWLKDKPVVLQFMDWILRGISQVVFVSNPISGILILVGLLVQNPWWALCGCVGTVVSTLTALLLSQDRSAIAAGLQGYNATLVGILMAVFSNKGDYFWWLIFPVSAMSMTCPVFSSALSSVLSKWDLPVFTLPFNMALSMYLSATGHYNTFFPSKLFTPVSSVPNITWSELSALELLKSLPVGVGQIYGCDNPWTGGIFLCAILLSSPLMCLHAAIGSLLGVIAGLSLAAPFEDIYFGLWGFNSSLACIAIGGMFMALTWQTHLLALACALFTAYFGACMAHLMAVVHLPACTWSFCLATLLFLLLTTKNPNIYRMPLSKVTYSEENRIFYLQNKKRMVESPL
Method: As a positive control, 0.7 mM phloretin was added to the RBC suspension prior to stopped-flow experiments. Measurements of water permeability were carried out similarly, with sucrose (cell-impermeant) used instead of urea to establish a 250-mM osmotic gradient. As a positive control, HgCl2 (0.3 mM) was added to the RBC suspension prior to stopped-flow measurements. Osmotic water permeability coefficients (Pf) were computed from light scattering data as described (van Hoek et al., J Biol Chem. 267:18267-69 (1992)).
For stopped-flow experiments, a 100-mM gradient of urea (for human RBCs) or N-methylurea (for mouse RBCs) was used to minimize competition effects (apparent urea and N-methylurea affinities at 23° C. are approximately 200 and approximately 100 mM, respectively) (Mayrand et al., J Gen Physiol. 81:221-37 (1983)). N-methylurea, with greater than 2-fold slower RBC permeability than urea, was used in mouse studies to better resolve overlapping water and urea transport kinetics. Dose-response data were also collected for human RBCs using a high concentration of 1 M urea to distinguish between competitive vs. non-competitive inhibitor binding.
For these studies using mouse RBCs, methylurea was used as the transported solute instead of urea because its transport is slower, allowing better estimation of EC50 values.

UT-B = target: T2, UT-B (Homo sapiens, UniProt Q13336); test: RBC lysis assay, human RBCs; format: cell-based; details: lysis assay, FIG. 5B, read-out: apparent EC50
T2 construct: a red blood cell (i.e., erythrocyte), which endogenously expresses the urea transporter UT-B; endogenous in cells; host or cells: human red blood cells (whole venous blood, single donor)
T2 sequence (Q13336 1-389): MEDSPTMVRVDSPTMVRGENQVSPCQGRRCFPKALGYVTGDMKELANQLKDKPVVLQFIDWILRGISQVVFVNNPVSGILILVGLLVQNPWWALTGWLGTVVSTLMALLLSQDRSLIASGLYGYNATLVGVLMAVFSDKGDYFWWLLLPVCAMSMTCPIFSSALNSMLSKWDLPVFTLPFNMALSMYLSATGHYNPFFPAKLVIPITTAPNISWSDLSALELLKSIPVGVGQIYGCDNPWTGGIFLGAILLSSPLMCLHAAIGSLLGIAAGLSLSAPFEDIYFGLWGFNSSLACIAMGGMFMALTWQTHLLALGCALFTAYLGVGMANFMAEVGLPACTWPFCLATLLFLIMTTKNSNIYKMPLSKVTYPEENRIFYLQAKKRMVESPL
Source text: Vigorous mixing was achieved by repeated pipetting.

| inhibitory potency against mouse UT-B (mouse UT-B) | EC50 (UT-B) [nM] | SMILES | effect on water transport (RBCs from wild-type mice) |
| --- | --- | --- | --- |
| good inhibitory potencies | 100 | Cc1ccc(Nc2nnc(-c3ccc(C(N)=O)cc3)c3ccccc23)cc1 [ureainh-302] | little effect on water transport |
| good inhibitory potencies | 30 | NC(=O)CSc1oc(-c2ccccc2)nc1S(=O)(=O)c1ccc(Br)cc1 [ureainh-101] | little effect on water transport |
